Experimental data reported in US20110160462A1, “CRYSTALLINE FORMS OF THIAZOLIDINEDIONE COMPOUND AND ITS MANUFACTURING METHOD” (DAIICHI SANKYO COMPANY, LIMITED, priority 2008, published 2011).
“Also recorded” adds a separate entry of the source. Read-outs that look alike come from different tables or passages of the source.

Columns and labels:
[1] = Solubility in dilute hydrochloric acid (Test Example 3); settings: for The concentration of 5-(4-{[6-(4-amino-3,5-dimethylphenoxy)-1-methyl-1-H-benzimidazol-2-yl]methoxy}benzyl)-1,3-thiazolidine-2,4-dione in dilute hydrochloric acid: dilute hydrochloric acid 9.6 mg/g (pH about 0.7), 25° C., 500 mg in 5 mL, sampled after 6 minutes
Protocol: Concentrated hydrochloric acid was diluted with water to prepare dilute hydrochloric acid (with a pH of about 0.7 at 25° C.) with a hydrochloric acid concentration of 9.6 mg/g, which was used as a test liquid. 500 mg of the crystalline form was weighed and added to 5 mL of the test liquid at 25° C. and stirred at the same temperature. After 6 minutes, the resulting test liquid was sampled and filtered. The concentration of 5-(4-{[6-(4-amino-3,5-dimethylphenoxy)-1-methyl-1-H-benzimi dazol-2-yl]methoxy}benzyl) 3-thiazolidine-2,4-dione in the filtrate was determined.
The concentration of 5-(4-{[6-(4-amino-3,5-dimethylphenoxy)-1-methyl-1-H-benzimi dazol-2-yl]methoxy}benzyl) 3-thiazolidine-2,4-dione was determined by the method described below.
Water, acetonitrile and methanol were mixed in a volume ratio of 55:40:5 to form a sample solvent.
In the sample solvent was dissolved 0.2 g of isoamyl 4-hydroxybenzoate so that 200 mL of an internal standard solution was obtained. About 0.04 g of a standard sample of 5-(4-{[6-(4-amino-3,5-dimethylphenoxy)-1-methyl-1-H-benzimi dazol-2-yl]methoxy}benzyl)-1,3-thiazolidine-2,4-dione dihydrochloride monohydrate was precisely weighed, transferred to a 200 mL measuring flask and dissolved in the sample solvent to form 200 mL of a solution. 5 mL of the solution was precisely measured and transferred to a 50 mL measuring flask. 10 mL of the internal standard solution was precisely added to the measuring flask, and the sample solvent was further added thereto to form 50 mL of a standard solution.
After sampling, the test liquid was filtered, and about 0.04 g of the filtered test liquid was precisely weighed and transferred to a 50 mL measuring flask. About 2.5 mL of dimethyl sulfoxide was added thereto. After 10 mL of the internal standard solution was added thereto, the sample solvent was further added thereto to form 50 mL of a sample solution.
The concentration was measured under the test conditions below.
The concentration is calculated from the following formula.
The concentration (mg/g) of the test liquid=1000×(QT×WS×FP×502.58)/(QS×WT×40×593.52),
wherein WS: the weight (g) of the standard sample when the standard solution is prepared; WT: the weight (g) of the test liquid when the sample solution is prepared; FP: the purity factor of the standard sample; QS: the value obtained by dividing the peak area of the standard sample in the chromatogram of the standard solution by the peak area of the internal standard; and QT: the value obtained by dividing the peak area of the sample in the chromatogram of the sample solution by the peak area of the internal standard.

[2] = as disclosed in Japanese Patent No. 3488099; cited from earlier work
[3] = target: T1, peroxisome proliferator-activated receptor (PPAR) γ (Homo sapiens, UniProt P37231); settings: as disclosed in Patent Documents 1 to 5; cited from earlier work
T1 sequence (P37231 1-505): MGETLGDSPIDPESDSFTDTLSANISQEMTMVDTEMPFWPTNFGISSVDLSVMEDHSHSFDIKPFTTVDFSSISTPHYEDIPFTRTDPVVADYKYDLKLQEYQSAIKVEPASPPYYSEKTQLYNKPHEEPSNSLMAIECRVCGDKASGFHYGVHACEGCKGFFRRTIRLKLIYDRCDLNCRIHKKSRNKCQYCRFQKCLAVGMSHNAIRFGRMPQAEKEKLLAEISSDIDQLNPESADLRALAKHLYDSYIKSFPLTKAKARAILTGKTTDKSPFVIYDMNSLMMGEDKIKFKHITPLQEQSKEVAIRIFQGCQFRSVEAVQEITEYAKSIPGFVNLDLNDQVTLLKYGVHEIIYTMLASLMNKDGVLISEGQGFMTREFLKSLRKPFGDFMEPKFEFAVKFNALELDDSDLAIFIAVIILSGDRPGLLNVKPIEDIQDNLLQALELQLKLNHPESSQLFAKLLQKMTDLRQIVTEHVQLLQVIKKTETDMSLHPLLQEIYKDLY

[4] = tested on: human colon cancer cell lines; settings: Test Example 3 in WO 2007/091622; cited from earlier work
[5] = tested on: human leukemia cells; settings: Test Example 2 in WO 2007/091622; cited from earlier work
[6] = tested on: cancer cells including human stomach cancer cells, human breast cancer cells, small cell lung cancer, pancreas cancer cells, prostate cancer cells, kidney …; settings: Test Example 1 in WO 2007/091622; cited from earlier work
[7] = tested on: cancer cells; settings: in combination with an epidermal growth factor receptor (EGFR) inhibitor; Test Example 4 in WO 2007/091622; cited from earlier work
[8] = tested on: human kidney cancer; settings: Test Example 7 in WO 2007/091622, cited from earlier work
[9] = tested on: cancer cells; settings: in combination with a VEGFR inhibitor or a Raf kinase inhibitor; Test Example 6 in WO 2007/091622; cited from earlier work
[10] = tested on: human non-small-cell lung cancer; settings: Test Example 5 in WO 2007/091622, cited from earlier work

Cc1cc(Oc2ccc3nc(COc4ccc(CC5SC(=O)NC5=O)cc4)n(C)c3c2)cc(C)c1N.Cl.Cl.O (centres unmarked) [5-(4-{[6-(4-amino-3,5-dimethylphenoxy)-1-methyl-1-H-benzimidazol-2-yl]methoxy}benzyl)-1,3-thiazolidine-2,4-dione dihydrochloride monohydrate]
The concentration of 5-(4-{[6-(4-amino-3,5-dimethylphenoxy)-1-methyl-1-H-benzimidazol-2-yl]methoxy}benzyl)-1,3-thiazolidine-2,4-dione in dilute hydrochloric acid ([1]; dihydrochloride monohydrate): 0.276 mg/g

Cc1cc(Oc2ccc3nc(COc4ccc(CC5SC(=O)NC5=O)cc4)n(C)c3c2)cc(C)c1N (centres unmarked) [Compound (I), 5-(4-{[6-(4-amino-3,5-dimethylphenoxy)-1-methyl-1-H-benzimidazol-2-yl]methoxy}benzyl)-1,3-thiazolidine-2,4-dione]
activity to ameliorate insulin resistance and to reduce blood sugar [2]: significant activity to ameliorate insulin resistance and to reduce blood sugar
ability to activate PPAR γ [3]: significant ability to activate

Cc1cc(Oc2ccc3nc(COc4ccc(CC5SC(=O)NC5=O)cc4)n(C)c3c2)cc(C)c1N.Cl.Cl.O (centres unmarked) [Crystalline form A, 5-(4-{[6-(4-amino-3,5-dimethylphenoxy)-1-methyl-1-H-benzimidazol-2-yl]methoxy}benzyl)-1,3-thiazolidine-2,4-dione dihydrochloride monohydrate]
The concentration of 5-(4-{[6-(4-amino-3,5-dimethylphenoxy)-1-methyl-1-H-benzimidazol-2-yl]methoxy}benzyl)-1,3-thiazolidine-2,4-dione in dilute hydrochloric acid ([1]; listed as Crystalline form A manufactured according to Example 4, dihydrochloride monohydrate): 0.325 mg/g
Solubility / concentration in dilute hydrochloric acid, comparison in words ([1]; dilute hydrochloric acid, dihydrochloride monohydrate): highest concentration among the dihydrochloride monohydrate crystalline forms; also recorded: higher solubility than Crystalline form B

Cc1cc(Oc2ccc3nc(COc4ccc(CC5SC(=O)NC5=O)cc4)n(C)c3c2)cc(C)c1N.Cl.Cl (centres unmarked) [dihydrochloride of Compound (I), 5-(4-{[6-(4-amino-3,5-dimethylphenoxy)-1-methyl-1-H-benzimidazol-2-yl]methoxy}benzyl)-1,3-thiazolidine-2,4-dione dihydrochloride]
antitumor activity in vivo against human colon cancer cell lines [4]: significant antitumor activity
growth inhibition of human leukemia cells [5]: significantly inhibits the growth-inhibiting activity
activity to inhibit the growth of cancer cells [6]: significant activity to inhibit the growth
activity to inhibit the growth of cancer cells in combination [7]: synergistic activity to inhibit the growth
antitumor activity against human kidney cancer ([8]; alone): has antitumor activity
antitumor activity against human kidney cancer in combination ([8]; in combination with a VEGFR inhibitor or a Raf kinase inhibitor): enhanced antitumor activity
activity to inhibit the growth of cancer cells in combination [9]: synergistic activity to inhibit the growth
antitumor activity against human non-small-cell lung cancer ([10]; alone): has antitumor activity
antitumor activity against human non-small-cell lung cancer in combination ([10]; in combination with an EGFR inhibitor): enhanced antitumor activity
